According to the supplement of paper PMC11451515:

Tests used:
Details in all cases: 48 h
NOMO1 [1] = assay: AUC of viability dose-response curve (% viability x log10 dose units); higher = less sensitive
Procedure, shortened: (§1)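 In 1536-well plates, leukemia cells adapted to each medium (500 or 1000 cells/well) were exposed for 48 h at 37°C to library compounds in DMSO across 11 threefold doses, 47 μM down to 0.79 nM. Viability was read by CellTiter-Glo One luminescence and normalised per plate to DMSO and cell-free wells. A four-parameter log-logistic fit over log10 doses was integrated by trapezoidal rule. This yielded the area under the curve, with over-full-viability curves scaled and quality-control failures dropped.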

P12-Ichikawa [2] = assay: as above
Procedure, shortened: as §1

SEM cells [3] = assay: as above
Procedure, shortened: as §1

NOMO1 [4] = assay: cell viability relative to DMSO control; higher = less cytotoxic
Procedure, shortened: (§2)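 Before seeding, each leukemia line was adapted for at least four passages in each medium. NOMO1 or SEM cells (500 cells/well) and P12-Ichikawa cells (1000 cells/well) went into 1536-well plates at 5 μl, then received library compounds in DMSO by pin dosing across 11 threefold concentrations, 47 μM to 0.79 nM. Readout was CellTiter-Glo One luminescence after 48 h at 37°C, and viability is given as a per-plate percentage of DMSO wells, with cell-free wells as background.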

P12-Ichikawa [5] = assay: as above
Procedure, shortened: as §2

SEM cells [6] = assay: as above
Procedure, shortened: as §2

CC(=O)N(C)C1(c2ccccc2)CCN(CCC[C@]2(c3ccc(Cl)c(Cl)c3)CCCN(C(=O)c3ccccc3)C2)CC1
AUC of viability dose-response curve
Details	NOMO1 [1]	P12-Ichikawa [2]	SEM cells [3]
HPLM + 10% dialyzed FBS	294	346	305
RPMI 5 mM glucose + 10% FBS	344	387	303
RPMI 5 mM glucose + 10% dialyzed FBS	343	366	326

cell viability [%]
Details	NOMO1 [4]	P12-Ichikawa [5]	SEM cells [6]
HPLM + 10% dialyzed FBS, 0.000781 µM	116	115	120
HPLM + 10% dialyzed FBS, 0.00234 µM	124	114	129
HPLM + 10% dialyzed FBS, 0.00702 µM	128	115	124
HPLM + 10% dialyzed FBS, 0.0211 µM	117	116	116
HPLM + 10% dialyzed FBS, 0.0632 µM	123	114	123
HPLM + 10% dialyzed FBS, 0.19 µM	104	108	120
HPLM + 10% dialyzed FBS, 0.569 µM	58.4	91.1	74.1
HPLM + 10% dialyzed FBS, 1.71 µM	25.1	54.9	14.2
HPLM + 10% dialyzed FBS, 5.12 µM	9.73	45.1	11.2
HPLM + 10% dialyzed FBS, 15.4 µM	10	33.9	9.08
HPLM + 10% dialyzed FBS, 46.1 µM	4.11	7.84	7.03
RPMI 5 mM glucose + 10% FBS, 0.000781 µM	106	110	109
RPMI 5 mM glucose + 10% FBS, 0.00234 µM	109	110	130
RPMI 5 mM glucose + 10% FBS, 0.00702 µM	122	110	103
RPMI 5 mM glucose + 10% FBS, 0.0211 µM	126	107	126
RPMI 5 mM glucose + 10% FBS, 0.0632 µM	128	114	123
RPMI 5 mM glucose + 10% FBS, 0.19 µM	122	119	123
RPMI 5 mM glucose + 10% FBS, 0.569 µM	111	111	78.7
RPMI 5 mM glucose + 10% FBS, 1.71 µM	65.5	88.4	9.2
RPMI 5 mM glucose + 10% FBS, 5.12 µM	15.3	55.8	6.49
RPMI 5 mM glucose + 10% FBS, 15.4 µM	8.99	41.1	6.83
RPMI 5 mM glucose + 10% FBS, 46.1 µM	5.76	12.1	4.78
RPMI 5 mM glucose + 10% dialyzed FBS, 0.000781 µM	110	110	109
RPMI 5 mM glucose + 10% dialyzed FBS, 0.00234 µM	112	107	145
RPMI 5 mM glucose + 10% dialyzed FBS, 0.00702 µM	114	110	119
RPMI 5 mM glucose + 10% dialyzed FBS, 0.0211 µM	115	112	128
RPMI 5 mM glucose + 10% dialyzed FBS, 0.0632 µM	106	117	139
RPMI 5 mM glucose + 10% dialyzed FBS, 0.19 µM	115	108	128
RPMI 5 mM glucose + 10% dialyzed FBS, 0.569 µM	100	99.8	133
RPMI 5 mM glucose + 10% dialyzed FBS, 1.71 µM	60.3	79.9	18.4
RPMI 5 mM glucose + 10% dialyzed FBS, 5.12 µM	16.9	38.9	12
RPMI 5 mM glucose + 10% dialyzed FBS, 15.4 µM	10.3	18.5	10.6
RPMI 5 mM glucose + 10% dialyzed FBS, 46.1 µM	5.1	11.2	6.46

C[C@@H]1CC[C@@]2(CC[C@]3(C)\C(=C/C[C@@H]4[C@@]5(C)CC[C@H](O)C(C)(C)[C@@H]5CC[C@@]34C)[C@@H]2[C@H]1C)C(O)=O
AUC of viability dose-response curve
Details	NOMO1 [1]	P12-Ichikawa [2]	SEM cells [3]
HPLM + 10% dialyzed FBS	477	462	465
RPMI 5 mM glucose + 10% FBS	461	469	467
RPMI 5 mM glucose + 10% dialyzed FBS	468	458	456

cell viability [%]
Details	NOMO1 [4]	P12-Ichikawa [5]	SEM cells [6]
HPLM + 10% dialyzed FBS, 0.000781 µM	111	112	85.6
HPLM + 10% dialyzed FBS, 0.00234 µM	120	117	109
HPLM + 10% dialyzed FBS, 0.00702 µM	116	113	111
HPLM + 10% dialyzed FBS, 0.0211 µM	113	109	110
HPLM + 10% dialyzed FBS, 0.0632 µM	111	120	112
HPLM + 10% dialyzed FBS, 0.19 µM	127	117	116
HPLM + 10% dialyzed FBS, 0.569 µM	130	109	123
HPLM + 10% dialyzed FBS, 1.71 µM	113	116	122
HPLM + 10% dialyzed FBS, 5.12 µM	113	115	108
HPLM + 10% dialyzed FBS, 15.4 µM	111	125	117
HPLM + 10% dialyzed FBS, 46.1 µM	119	113	121
RPMI 5 mM glucose + 10% FBS, 0.000781 µM	113	117	105
RPMI 5 mM glucose + 10% FBS, 0.00234 µM	108	112	101
RPMI 5 mM glucose + 10% FBS, 0.00702 µM	120	104	108
RPMI 5 mM glucose + 10% FBS, 0.0211 µM	106	113	96.2
RPMI 5 mM glucose + 10% FBS, 0.0632 µM	112	118	113
RPMI 5 mM glucose + 10% FBS, 0.19 µM	108	116	123
RPMI 5 mM glucose + 10% FBS, 0.569 µM	98.7	116	109
RPMI 5 mM glucose + 10% FBS, 1.71 µM	104	116	99.2
RPMI 5 mM glucose + 10% FBS, 5.12 µM	102	116	102
RPMI 5 mM glucose + 10% FBS, 15.4 µM	112	124	114
RPMI 5 mM glucose + 10% FBS, 46.1 µM	106	115	61.6
RPMI 5 mM glucose + 10% dialyzed FBS, 0.000781 µM	104	99.7	107
RPMI 5 mM glucose + 10% dialyzed FBS, 0.00234 µM	120	106	116
RPMI 5 mM glucose + 10% dialyzed FBS, 0.00702 µM	117	106	114
RPMI 5 mM glucose + 10% dialyzed FBS, 0.0211 µM	125	112	111
RPMI 5 mM glucose + 10% dialyzed FBS, 0.0632 µM	124	123	112
RPMI 5 mM glucose + 10% dialyzed FBS, 0.19 µM	113	114	118
RPMI 5 mM glucose + 10% dialyzed FBS, 0.569 µM	121	115	118
RPMI 5 mM glucose + 10% dialyzed FBS, 1.71 µM	112	110	136
RPMI 5 mM glucose + 10% dialyzed FBS, 5.12 µM	114	119	129
RPMI 5 mM glucose + 10% dialyzed FBS, 15.4 µM	106	109	118
RPMI 5 mM glucose + 10% dialyzed FBS, 46.1 µM	114	113	110
